Data set [1] can be described thus: Mouse PK study (i.v. and p.o.). To be noted: plasma, male CD1 mice; for half-life: read-out: T1/2 (hr) i.v. (converted); for Vd: read-out: Vss; for bioavailability: 5 mg/kg p.o. vs 1 mg/kg i.v. The format is in vivo. The protocol:
Test compounds were dosed to male CD1 mice at 5 mg/kg by oral gavage (p.o.) or 1 mg/kg by intravenous injection (i.v.). Blood samples were taken at 0.083, 0.25, 0.5, 1.0, 3.0, 6.0 and 24 hours post i.v. dosing and at 0.25, 0.5, 1.0, 3.0, 6.0 and 24 hours post p.o. dosing. The plasma concentration of compounds were determined by HPLC.

The target in a further data set is T1, α1β2γ2 GABAA receptor (Homo sapiens, UniProt P14867+P47870).
T1 construct: expressed in transfected cells
T1 sequence (P14867 28-456): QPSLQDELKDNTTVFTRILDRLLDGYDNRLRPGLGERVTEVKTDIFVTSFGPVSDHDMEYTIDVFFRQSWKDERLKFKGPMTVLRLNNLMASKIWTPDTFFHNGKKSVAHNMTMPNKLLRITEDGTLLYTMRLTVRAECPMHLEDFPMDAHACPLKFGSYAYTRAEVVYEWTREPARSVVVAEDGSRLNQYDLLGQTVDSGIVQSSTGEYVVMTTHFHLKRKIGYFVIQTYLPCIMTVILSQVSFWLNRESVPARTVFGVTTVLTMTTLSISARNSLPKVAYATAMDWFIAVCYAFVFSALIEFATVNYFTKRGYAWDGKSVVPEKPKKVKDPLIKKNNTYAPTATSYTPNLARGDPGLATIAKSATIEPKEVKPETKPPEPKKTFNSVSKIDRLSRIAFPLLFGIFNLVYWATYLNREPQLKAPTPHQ
T1 sequence (P47870 25-512 limits assumed): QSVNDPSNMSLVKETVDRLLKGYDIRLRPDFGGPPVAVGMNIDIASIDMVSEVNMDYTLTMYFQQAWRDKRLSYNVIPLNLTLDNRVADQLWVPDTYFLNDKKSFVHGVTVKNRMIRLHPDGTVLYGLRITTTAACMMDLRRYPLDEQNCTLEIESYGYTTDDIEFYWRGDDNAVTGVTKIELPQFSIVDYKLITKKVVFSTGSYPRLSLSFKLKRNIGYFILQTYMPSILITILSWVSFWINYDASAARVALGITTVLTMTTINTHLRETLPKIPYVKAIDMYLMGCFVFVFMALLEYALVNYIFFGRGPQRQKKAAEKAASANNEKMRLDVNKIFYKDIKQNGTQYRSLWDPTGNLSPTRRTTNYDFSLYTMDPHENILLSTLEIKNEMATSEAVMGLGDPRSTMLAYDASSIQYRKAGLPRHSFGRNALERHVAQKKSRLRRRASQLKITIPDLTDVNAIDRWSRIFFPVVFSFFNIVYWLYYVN
T1 sequence (P18507 40-475 partner): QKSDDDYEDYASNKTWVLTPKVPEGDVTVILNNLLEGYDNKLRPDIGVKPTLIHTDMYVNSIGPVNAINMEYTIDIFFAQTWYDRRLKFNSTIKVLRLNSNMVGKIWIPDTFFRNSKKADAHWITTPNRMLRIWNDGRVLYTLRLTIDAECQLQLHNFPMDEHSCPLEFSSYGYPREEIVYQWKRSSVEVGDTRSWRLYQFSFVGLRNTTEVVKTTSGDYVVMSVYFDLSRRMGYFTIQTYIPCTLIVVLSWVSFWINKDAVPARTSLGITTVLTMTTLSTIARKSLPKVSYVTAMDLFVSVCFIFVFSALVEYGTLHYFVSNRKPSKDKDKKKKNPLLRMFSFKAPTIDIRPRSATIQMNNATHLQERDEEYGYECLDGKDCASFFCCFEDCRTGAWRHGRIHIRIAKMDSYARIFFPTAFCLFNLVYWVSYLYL
Nature of the data set: Patch clamp electrophysiology assay of recombinant α1β2γ2 GABAA receptors (potentiation of 2 μM GABA-evoked Cl- current). The format is cell-based. To be noted: HEK293T cells stably transfected with α1β2γ2 GABAA; for EC50: whole cell, 2 μM GABA, -80 mV; for Emax: HEK-293T, potentiation of 2 μM GABA current. The protocol: Cellular electrophysiology is used to measure the pharmacological properties of GABAA receptor modulators in heterologous cell systems. Each compound is tested for its ability to affect GABA mediated currents at a submaximal agonist dose (GABA EC20=2 μM). HEK293T cells are stably transfected with the α1β2γ2 subunits of the GABAA receptor. Flasks or dishes of HEK293 GABAA cells were maintained in the medium (DMEM, 11% (v/v) heat inactivated FBS, 100 or 200 μg/ml G418, 40 μg/ml Hygromycin B, 80 μg/ml Zeocin) and incubated at 37° C. in a humidified incubator with 5% CO2. 12 to 24 hours prior to electrophysiological recordings, the cells were plated on glass cover slips placed in culture dishes and maintained under the same incubation and media conditions. The number of cells being plated on the cover slip should reach a confluence rate at which majority of the cells are single.
For the electrophysiological recordings in the study the following external and internal solutions were used (Table 1):
HEKA EPC 10 USB patch clamp amplifier (from HEKA Elektronik, Germany) was used in the whole cell recording. A cover slip with plenty of single HEK293T-GABAA cells on the surface was removed and placed into a continuously perfused (approximately 1-2 ml/minute) recording chamber mounted on an inverted microscope. GABAA Cl^− current was recorded from single cell using standard whole cell recording techniques. 2 μM GABA was used to evoke GABAA Cl^− current (2 μM of GABA was the EC10-EC20 value of agonist GABA obtained internally on the stable GABAA cells used in this study). After achieving break-in (whole-cell) configuration, the cell was voltage clamped at a holding potential of −80 mV. Only stable cells meeting the recording parameters (membrane resistance Rm>500 MΩ, access resistance (Ra)<15 MΩ, leak current<100 pA in 90% of the recording time) were used. 2 μM GABA was applied to the cell to induce stable Cl^− current first as control for about 2 seconds, test compounds (i.e., compounds of formula (AI), (I), (AII), and (II), or any subgenera thereof) were followed to be applied to the cells for 3 min, then 2 μM GABA was applied to observe the potentiation effect on the GABAA Cl^− current. Different doses of test compound from low to high were applied to the same cell when the cell was stable. A cell was considered stable when current size evoked by 2 μM GABA applied to the cell from time to time was similar. To minimize the possible desensitation of GABAA Cl^− current, duration between applications of test articles was set to 180 seconds.
Test compounds were dissolved in DMSO to form stock solutions (10 mM). Test compounds were diluted to 0.003, 0.01, 0.03, 0.1, 0.3, 1, 3 and 10 μM in bath solution. AU concentrations of test articles were tested on each cell. Data were analyzed using software provided by HEKA, Microsoft Excel and Graphpad Prism (Table 2).
(The patch-clamp technique gives a direct electrical read-out from membranes.)

Where [2] appears, read: iv, 1 mg/kg i.v., read-out: AUClast (hr*ng/mL) i.v.
The mark [3] stands for this setting: po, 5 mg/kg p.o., read-out: AUClast (hr*ng/mL) p.o.

A word on the Cmax: it is the peak of the concentration-time curve. A word on the Tmax: it is the time at which the peak concentration occurs. What is called EC50 is the concentration at which the effect is half-maximal. Broadly, the Emax is the greatest response seen or fitted, relative to the assay's reference.

Like-named read-outs stand apart in the source and are kept apart here.

Regarding `C[C@@]1(O)CC[C@H]2[C@H](CC[C@@H]3[C@@H]2CC[C@]2(C)[C@@H](C(=O)Cn4nnn(-c5cccc(F)c5)c4=O)CC[C@@H]32)C1` [Example 12, 1-(3-fluorophenyl)-4-(2-((3R,5R,8R,9R,10S,13S,14S,17S)-3-hydroxy-3,13-dimethylhexadecahydro-1H-cyclopenta[a]phenanthren-17-yl)-2-oxoethyl)-1,4-dihydro-5H-tetrazol-5-one], in data set [1] (iv, 1 mg/kg i.v.), the clearance is 8.33 mL/min/kg, the half-life is 6.22 h and the Vd was 2.86 L/kg. Moreover, in data set [1] (setting [2]), the AUC(0-t) is 1880 ng·h/mL. In data set [1] (po, 5 mg/kg p.o.), the concentration peaked (Cmax) at 388 ng/mL and the Tmax turned out to be 1 h. For the same compound, the bioavailability in data set [1] (po) was found to be 42.4%. In addition, the AUC(0-t) in data set [1] (setting [3]) was 4140 ng·h/mL. For the same compound, the EC50 on α1β2γ2 GABAA receptor is 9.3 nM.

`C[C@@]1(O)CC[C@H]2[C@H](CC[C@@H]3[C@@H]2CC[C@]2(C)[C@@H](C(=O)Cn4nnn(-c5cccc(C#N)c5)c4=O)CC[C@@H]32)C1` [Example 14, 3-(4-(2-((3R,5R,8R,9R,10S,13S,14S,17S)-3-hydroxy-3,13-dimethylhexadecahydro-1H-cyclopenta[a]phenanthren-17-yl)-2-oxoethyl)-5-oxo-4,5-dihydro-1H-tetrazol-1-yl)benzonitrile]: in data set [1] (iv, 1 mg/kg i.v.), the clearance was 20.5 mL/min/kg, the half-life was 1.44 h and the Vd was 1.92 L/kg. Also, the AUC(0-t) in data set [1] (setting [2]) is 771 ng·h/mL. Also, in data set [1] (po, 5 mg/kg p.o.), the concentration peaked (Cmax) at 250 ng/mL and the Tmax turned out to be 1 h. The bioavailability in data set [1] (po) is 28.9%. Also, the AUC(0-t) in data set [1] (setting [3]) is 1120 ng·h/mL. Moreover, at α1β2γ2 GABAA receptor, the EC50 came out at 7 nM and the Emax was found to be 974%.

In the case of `COc1ccc(-n2nnn(CC(=O)[C@H]3CC[C@H]4[C@@H]5CC[C@@H]6C[C@](C)(O)CC[C@@H]6[C@H]5CC[C@]34C)c2=O)cc1` [Example 15, 1-(2-((3R,5R,8R,9R,10S,13S,14S,17S)-3-hydroxy-3,13-dimethylhexadecahydro-1H-cyclopenta[a]phenanthren-17-yl)-2-oxoethyl)-4-(4-methoxyphenyl)-1,4-dihydro-5H-tetrazol-5-one], in data set [1] (iv, 1 mg/kg i.v.), the clearance is 30 mL/min/kg, the half-life is 1.05 h and the Vd came out at 1.76 L/kg. Further, the AUC(0-t) in data set [1] (setting [2]) is 542 ng·h/mL. Besides, in data set [1] (po, 5 mg/kg p.o.), the concentration peaked (Cmax) at 106 ng/mL and the Tmax was 1 h. Further, the bioavailability in data set [1] (po) was 10.8%. For the same compound, the AUC(0-t) in data set [1] (setting [3]) worked out at 292 ng·h/mL. In addition, the EC50 on α1β2γ2 GABAA receptor was found to be 5 nM.

Regarding `COc1cccc(-n2nnn(CC(=O)[C@H]3CC[C@H]4[C@@H]5CC[C@@H]6C[C@](C)(O)CC[C@@H]6[C@H]5CC[C@]34C)c2=O)c1` [Example 16, 1-(2-((3R,5R,8R,9R,10S,13S,14S,17S)-3-hydroxy-3,13-dimethylhexadecahydro-1H-cyclopenta[a]phenanthren-17-yl)-2-oxoethyl)-4-(3-methoxyphenyl)-1,4-dihydro-5H-tetrazol-5-one], in data set [1] (iv, 1 mg/kg i.v.), the clearance was 33 mL/min/kg, the half-life was 0.9 h and the Vd is 1.54 L/kg. In addition, the AUC(0-t) in data set [1] (setting [2]) was determined as 500 ng·h/mL. For the same compound, in data set [1] (po, 5 mg/kg p.o.), the Cmax was 109 ng/mL and the Tmax turned out to be 0.5 h. For the same compound, the bioavailability in data set [1] (po) amounted to 15.1%. In addition, the AUC(0-t) in data set [1] (setting [3]) was 330 ng·h/mL. Also, on α1β2γ2 GABAA receptor, the concentration for a half-maximal effect (EC50) was found to be 5.4 nM and the Emax was determined as 578%.

Turning to `C[C@@]1(O)CC[C@H]2[C@H](CC[C@@H]3[C@@H]2CC[C@]2(C)[C@@H](C(=O)Cn4nnn(-c5cccnc5)c4=O)CC[C@@H]32)C1` [Example 18, 1-(2-((3R,5R,8R,9R,10S,13S,14S,17S)-3-hydroxy-3,13-dimethylhexadecahydro-1H-cyclopenta[a]phenanthren-17-yl)-2-oxoethyl)-4-(pyridin-3-yl)-1,4-dihydro-5H-tetrazol-5-one], in data set [1] (iv, 1 mg/kg i.v.), the clearance is 56.5 mL/min/kg, the half-life was 0.29 h and the Vd is 1.33 L/kg. In addition, the AUC(0-t) in data set [1] (setting [2]) amounted to 270 ng·h/mL. In data set [1] (po, 5 mg/kg p.o.), the highest concentration (Cmax) turned out to be 297 ng/mL and the Tmax turned out to be 1 h. In addition, the bioavailability in data set [1] (po) was found to be 50.1%. Moreover, the AUC(0-t) in data set [1] (setting [3]) worked out at 692 ng·h/mL. Further, at α1β2γ2 GABAA receptor, the EC50 is 39 nM and the Emax was 757%.

With `C[C@@]1(O)CC[C@H]2[C@H](CC[C@@H]3[C@@H]2CC[C@]2(C)[C@@H](C(=O)Cn4nnn(C(F)(F)F)c4=O)CC[C@@H]32)C1` [Example 22, 1-(2-((3R,5R,8R,9R,10S,13S,14S,17S)-3-hydroxy-3,13-dimethylhexadecahydro-1H-cyclopenta[a]phenanthren-17-yl)-2-oxoethyl)-4-(trifluoromethyl)-1,4-dihydro-5H-tetrazol-5-one], in data set [1] (iv, 1 mg/kg i.v.), the clearance is 130 mL/min/kg, the half-life is 0.3 h and the Vd came to 2.59 L/kg. Besides, in data set [1] (setting [2]), the AUC(0-t) stood at 118 ng·h/mL. Besides, in data set [1] (po, 5 mg/kg p.o.), the Cmax was found to be 213 ng/mL and the Tmax worked out at 0.5 h. Also, the bioavailability in data set [1] (po) came out at 34.2%. For the same compound, in data set [1] (setting [3]), the AUC(0-t) is 203 ng·h/mL. Moreover, the 50% effective concentration (EC50) at α1β2γ2 GABAA receptor worked out at 14 nM.

With `C[C@@]1(O)CC[C@H]2[C@H](CC[C@@H]3[C@@H]2CC[C@]2(C)[C@@H](C(=O)Cn4nnn(-c5cocn5)c4=O)CC[C@@H]32)C1` [Example 24, 1-(2-((3R,5R,8R,9R,10S,13S,14S,17S)-3-hydroxy-3,13-dimethylhexadecahydro-1H-cyclopenta[a]phenanthren-17-yl)-2-oxoethyl)-4-(oxazol-4-yl)-1,4-dihydro-5H-tetrazol-5-one], in data set [1] (iv, 1 mg/kg i.v.), the clearance was 15.5 mL/min/kg, the half-life was 1.57 h and the Vd amounted to 1.87 L/kg. Moreover, the AUC(0-t) in data set [1] (setting [2]) was 998 ng·h/mL. In addition, in data set [1] (po, 5 mg/kg p.o.), the Cmax was found to be 775 ng/mL and the time of peak concentration (Tmax) is 3 h. Besides, the bioavailability in data set [1] (po) came to 172%. For the same compound, the AUC(0-t) in data set [1] (setting [3]) stood at 9180 ng·h/mL. Further, on α1β2γ2 GABAA receptor, the EC50 stood at 64 nM and the maximal response (Emax) was found to be 698%.

For the compound `C[C@@]1(O)CC[C@H]2[C@H](CC[C@@H]3[C@@H]2CC[C@]2(C)[C@@H](C(=O)Cn4nnn(-c5ccn[nH]5)c4=O)CC[C@@H]32)C1` [Example 25, 1-(2-((3R,5R,8R,9R,10S,13S,14S,17S)-3-hydroxy-3,13-dimethylhexadecahydro-1H-cyclopenta[a]phenanthren-17-yl)-2-oxoethyl)-4-(1H-pyrazol-5-yl)-1,4-dihydro-5H-tetrazol-5-one], in data set [1] (iv, 1 mg/kg i.v.), the clearance is 6.5 mL/min/kg, the half-life was 4.63 h and the Vd was 1.88 L/kg. For the same compound, the AUC(0-t) in data set [1] (setting [2]) came to 2480 ng·h/mL. In data set [1] (po, 5 mg/kg p.o.), the maximum concentration (Cmax) turned out to be 1190 ng/mL and the Tmax came to 3 h. The bioavailability in data set [1] (po) was found to be 106%. Also, the AUC(0-t) in data set [1] (setting [3]) is 12800 ng·h/mL. Besides, the EC50 on α1β2γ2 GABAA receptor amounted to 130 nM.

As for `Cn1ccc(-n2nnn(CC(=O)[C@H]3CC[C@H]4[C@@H]5CC[C@@H]6C[C@](C)(O)CC[C@@H]6[C@H]5CC[C@]34C)c2=O)n1` [Example 27, 1-(2-((3R,5R,8R,9R,10S,13S,14S,17S)-3-hydroxy-3,13-dimethylhexadecahydro-1H-cyclopenta[a]phenanthren-17-yl)-2-oxoethyl)-4-(1-methyl-1H-pyrazol-3-yl)-1,4-dihydro-5H-tetrazol-5-one], in data set [1] (iv, 1 mg/kg i.v.), the clearance is 14.5 mL/min/kg, the half-life is 1.09 h and the Vd amounted to 1.14 L/kg. Further, the AUC(0-t) in data set [1] (setting [2]) came out at 1110 ng·h/mL. Also, in data set [1] (po, 5 mg/kg p.o.), the Cmax was found to be 1070 ng/mL and the time to peak (Tmax) worked out at 1 h. For the same compound, in data set [1] (po), the bioavailability amounted to 153%. Besides, the AUC(0-t) in data set [1] (setting [3]) was found to be 8770 ng·h/mL. Moreover, on α1β2γ2 GABAA receptor, the EC50 came to 120 nM.

The values are drawn from patent publication US20220089636A1, “TETRAZOLONE SUBSTITUTED STEROIDS AND USE THEREOF” (Beijing Xuanyi PharmaSciences Co., Ltd., priority 2019, published 2022).
